Data on three compounds can be found in patent US20190015361A1 (Maxwell Biosciences, Inc., priority 2017, published 2019).

Assay [1] has as its target Aβ40 (t=0 days), Aβ42 (t=0 days), Aβ42 (t=24 days). As to the kind of experiment: SPRi interaction with the three immobilized Aβ forms. The assay is classed as binding, human.
Another assay has as its target Aβ42 (t = 24 days) (Homo sapiens, UniProt P05067). As to the kind of experiment: SPRi equilibrium binding of LL-37 to immobilized Aβ42 (high-MW oligomers). The note with it: equilibrium fit.
Assay [2] deals with T1, Aβ42 (Homo sapiens, UniProt P05067).
T1 construct: Aβ42 (residues 1-42 of the Aβ peptide); purchased AnaSpec (Fremont Calif., USA)
T1 sequence (P05067 672-713 limits assumed): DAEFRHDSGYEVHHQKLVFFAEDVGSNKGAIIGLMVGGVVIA
The assay can be described thus: Transmission electron microscopy of Aβ42 fibril formation. On the procedure: For TEM and CD analysis, the samples were prepared as described in Brogi et al. [REF: Disease-modifying anti-Alzheimer's drugs: inhibitors of human cholinesterases interfering with β-amyloid aggregation. Brogi S, Butini S, Maramai S, Colombo R, Verga L, Lanni C, De Lorenzi E, Lamponi S, Andreassi M, Bartolini M, Andrisano V, Novellino E, Campiani G, Brindisi M, Gemma S. CNS Neurosci Ther. 2014 Jui; 20(7):624-32. Pubmed ID PMID 24935788], and analyzed at 50 and/or 100 μM concentrations. Briefly, to 1 mg lyophilized Aβ42 powder (AnaSpec) […] of 1% NH4OH solution was added. After 1 minute sonication, the solution was diluted with 20 mM phosphate buffer, pH 7.4, to the desired concentration, and divided into aliquots, which were freeze-dried and stored at −80° C. Each lyophilized peptide aliquot was resuspended in 20 mM phosphate buffer, pH 7.4 immediately before use. Samples were sonicated 3 min in an ultrasonic bath, to break down pre-formed aggregates and increase the peptide's effective concentration [REF: Sonication of proteins causes formation of aggregates that resemble amyloid. Stathopulos P B. Scholz G A, Hwang Y M, Rumfeldt J A, Lepock J R, Meiering E M. Protein Sci. 2004 November; 13(11):3017-27. Pubmed ID PMID 15459333]. […] Samples were analyzed either immediately after solubilization, or after different lengths of incubation time, as noted in FIG. legends. […]

Assay [3] has as its target T1, Aβ42. As to the kind of experiment: Circular dichroism conformational analysis of Aβ42. The note with it: 50 μM Aβ42 in the presence of LL-37 (1:1), t=0 and 24 hours. On the procedure:
For TEM and CD analysis, the samples were prepared as described in Brogi et al. [REF: Disease-modifying anti-Alzheimer's drugs: inhibitors of human cholinesterases interfering with β-amyloid aggregation. Brogi S, Butini S, Maramai S, Colombo R, Verga L, Lanni C, De Lorenzi E, Lamponi S, Andreassi M, Bartolini M, Andrisano V, Novellino E, Campiani G, Brindisi M, Gemma S. CNS Neurosci Ther. 2014 Jui; 20(7):624-32. Pubmed ID PMID 24935788], and analyzed at 50 and/or 100 μM concentrations. Briefly, to 1 mg lyophilized Aβ42 powder (AnaSpec) […] of 1% NH4OH solution was added. […] Samples were analyzed either immediately after solubilization, or after different lengths of incubation time, as noted in FIG. legends.
CD spectra were collected at 20° C. using a Jasco-810 spectrophotometer and a quartz cuvette with a 0.1 cm path length. […] Molar mean residue ellipticity [θ] is expressed in degrees cm2 dmol−1, and calculated as [θ]=θobs MWR/(10 l c), where θ is observed ellipticity in degrees; MWR, peptide mean residue molar weight; l, the optical path length in cm; and c, peptide concentration in […].
As in TEM analysis, spectra were recorded immediately after dissolving peptide according to [REF: Disease-modifying anti-Alzheimer's drugs: inhibitors of human cholinesterases interfering with β-amyloid aggregation. […]
In general terms: CD spectra are sensitive to the conformation of chiral molecules.

The target in another assay is Aβ40 (t = 0 days) (Homo sapiens, UniProt P05067). The assay can be described thus: SPRi equilibrium binding of LL-37 to immobilized Aβ40.
Chain of Aβ40 (t = 0 days) (P05067 672-711): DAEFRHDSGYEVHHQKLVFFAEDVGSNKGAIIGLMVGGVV

A further assay deals with Aβ42 (t = 0 days) (Homo sapiens, UniProt P05067). The assay can be described thus: SPRi equilibrium binding of LL-37 to immobilized Aβ42 (low-MW oligomers). The note with it: equilibrium fit.
Chain of Aβ42 (t = 0 days) (P05067 672-713 limits assumed): as the sequence (P05067 672-713 limits assumed) above
For another assay, the system named is human microglia. The assay can be described thus: TNFα and IL-6 release from microglia (ELISA). The assay is classed as cell-based. Conditions: microglial cell-free supernatant, 30 μM, 2 days' incubation. (In an ELISA, binding on a coated surface is turned into a signal by an enzyme label.)
Another assay concerns the target Aβ42 monomers (Homo sapiens, UniProt P05067). The note with it: Aβ42 monomers immobilized on SPR chip; cited from earlier work.
Another assay has as its target Aβ42 oligomers (Homo sapiens, UniProt P05067). Conditions: Aβ42 oligomers immobilized on SPR chip; cited from earlier work.

Chain of Aβ42 (t = 24 days) (P05067 672-713 limits assumed): as above
Chain of Aβ42 monomers (P05067 672-713 limits assumed): as above
Chain of Aβ42 oligomers (P05067 672-713 limits assumed): as above

With “same amino acid composition as natural LL-37, sequence GLKLRFEFSKIKGEFLKTPEVRFRDIKLKDNRISVQR; from AnaSpec [scrambled LL-37, reference compound]”, the binding affinities constants entry in assay [1] (same equilibrium analysis, control scrambled-sequence peptide) is reported as “could not be calculated”.

Consider LL-37, for which the “Rmax (maximal response)” value came out at 4.43 at Aβ42 (t = 24 days) (LL-37 1-100 μM injected on immobilized Aβ42 (t=24 days)); 0.59 at Aβ40 (t = 0 days) (LL-37 1-100 μM injected on immobilized Aβ40 (t=0 days), nonlinear fit of SPRi response at equilibrium); 1.56 on Aβ42 (t = 0 days) (LL-37 1-100 μM injected on immobilized Aβ42 (t=0 days)). In addition, the KA was found to be 49200 M⁻¹ on Aβ42 (t = 24 days) (immobilized Aβ42 (t=24 days)); 120000 M⁻¹ at Aβ40 (t = 0 days) (immobilized Aβ40 (t=0 days), equilibrium fit); 75100 M⁻¹ on Aβ42 (t = 0 days) (immobilized Aβ42 (t=0 days)). Further, the “Aβ42 fibril formation (TEM)” value on Aβ42 [2] (50 μM Aβ42 co-incubated with equimolar LL-37, t=0, 3 and 9 days) was “inhibits Aβ42 fibril formation”. For the same compound, the “fibrils seen by TEM” value at Aβ42 [2] (50 μM Aβ42 with equimolar LL-37, t=9 days) is on record as “no visible fibrils present”. The SPRi interaction signal entry in assay [1] (analyte flowed onto the SPRi chip for 10 minutes, all three Aβ forms) is “specific and reversible interactions”. Besides, on Aβ42 [3], the “Aβ42 secondary structure (CD)” value is “prevented, to a large degree, from forming typical β structure”. Also, the IL-6 release entry with human microglia is listed as “induced release”. Besides, the TNFα release entry in the assay on human microglia is “induced release”.

The Kd is the concentration at which binding is half-saturated. As to `CC[C@]12C=CCN3CC[C@]4(C(=C(C(=O)OC)C1)Nc1ccccc14)[C@@H]32` [tabersonine], the Kd on Aβ42 monomers is 69 µM; on Aβ42 oligomers, 535 µM.
